Experimental findings from patent US10214492B2, “Heterocyclic inhibitors of MCT4” (Vettore, LLC, priority 2016, dated 2019) are described below.

The target of data set [1] is MCT4 (Homo sapiens (Human), UniProt O15427). The data set can be described thus: Assay 3: MCT4-mediated lactate transport in MDA-MB-231 breast cancer cells. Format: cell-based. Conditions: MDA-MB-231 cells; lactate transport. A digest of the protocol: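 MDA-MB-231 cells loaded with BCECF-AM, 5 min at 37° C, washed and resuspended in Tyrode's Solution, pH 7.4. MCT4 lactate/proton symport followed as the intracellular pH change reported by BCECF fluorescence.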
MCT4, sequence (O15427 whole entry, looked up): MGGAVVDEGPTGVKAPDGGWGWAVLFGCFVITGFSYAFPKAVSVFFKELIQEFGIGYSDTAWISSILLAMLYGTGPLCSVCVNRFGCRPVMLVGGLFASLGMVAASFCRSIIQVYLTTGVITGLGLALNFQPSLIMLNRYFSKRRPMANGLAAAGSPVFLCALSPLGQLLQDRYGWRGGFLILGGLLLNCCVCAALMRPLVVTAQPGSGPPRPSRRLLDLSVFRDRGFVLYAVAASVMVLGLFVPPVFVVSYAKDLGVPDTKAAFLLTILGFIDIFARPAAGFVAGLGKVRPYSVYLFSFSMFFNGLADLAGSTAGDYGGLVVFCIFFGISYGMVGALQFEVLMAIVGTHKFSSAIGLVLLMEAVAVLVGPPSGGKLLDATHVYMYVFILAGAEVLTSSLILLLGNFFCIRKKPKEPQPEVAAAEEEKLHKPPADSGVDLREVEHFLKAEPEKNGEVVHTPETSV
MCT4, sequence (P35613 whole entry partner, looked up): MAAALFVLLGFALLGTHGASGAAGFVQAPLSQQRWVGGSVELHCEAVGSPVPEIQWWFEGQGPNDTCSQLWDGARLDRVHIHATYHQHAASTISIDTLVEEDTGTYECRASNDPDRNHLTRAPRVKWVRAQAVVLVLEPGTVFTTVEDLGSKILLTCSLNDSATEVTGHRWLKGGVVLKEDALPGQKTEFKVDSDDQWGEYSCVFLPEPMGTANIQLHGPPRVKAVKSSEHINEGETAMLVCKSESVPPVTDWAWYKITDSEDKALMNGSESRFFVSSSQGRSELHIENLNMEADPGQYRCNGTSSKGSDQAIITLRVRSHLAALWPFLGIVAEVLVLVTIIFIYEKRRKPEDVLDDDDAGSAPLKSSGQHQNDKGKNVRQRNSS

In data set [2] the target is MCT1 (Homo sapiens (Human), UniProt P53985). Briefly: Assay 4: MCT1-mediated lactate transport in BT20 breast cancer cells. Type of data set: cell-based. The settings on record: Table 27. A digest of the protocol: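 BT20 cells loaded with BCECF-AM (30 mM DMSO stock) for 5 min at 37° C, washed and resuspended in Tyrode's Solution pH 7.4. Lactate uptake tracked via BCECF intracellular pH signal after adding 10 mM L-lactate.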
MCT1, sequence (P53985 whole entry): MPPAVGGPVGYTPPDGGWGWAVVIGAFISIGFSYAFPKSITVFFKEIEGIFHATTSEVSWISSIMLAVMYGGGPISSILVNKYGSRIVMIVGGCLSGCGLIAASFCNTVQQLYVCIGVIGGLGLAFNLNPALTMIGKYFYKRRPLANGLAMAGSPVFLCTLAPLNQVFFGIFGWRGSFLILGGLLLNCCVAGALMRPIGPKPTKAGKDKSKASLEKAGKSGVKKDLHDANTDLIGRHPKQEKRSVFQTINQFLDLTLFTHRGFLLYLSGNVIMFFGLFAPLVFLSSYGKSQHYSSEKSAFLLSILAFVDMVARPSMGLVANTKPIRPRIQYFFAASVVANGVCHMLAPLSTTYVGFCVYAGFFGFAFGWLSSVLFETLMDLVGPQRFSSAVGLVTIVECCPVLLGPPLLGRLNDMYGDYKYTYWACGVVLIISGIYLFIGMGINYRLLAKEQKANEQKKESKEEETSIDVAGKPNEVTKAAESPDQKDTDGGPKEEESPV
MCT1, sequence (P35613 140-385 partner): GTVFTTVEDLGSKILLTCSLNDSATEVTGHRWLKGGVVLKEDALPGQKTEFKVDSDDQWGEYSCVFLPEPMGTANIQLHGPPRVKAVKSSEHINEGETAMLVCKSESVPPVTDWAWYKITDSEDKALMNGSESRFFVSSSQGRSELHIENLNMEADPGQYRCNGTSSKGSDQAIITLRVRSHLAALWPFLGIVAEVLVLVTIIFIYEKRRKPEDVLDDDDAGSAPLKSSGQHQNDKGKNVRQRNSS

Data set [3] can be described thus: Metabolic stability in human liver microsomes (in vitro t1/2). Format: in vitro ADME. The settings on record: for half-life at 2 µM: human liver microsomes 0.5 mg/mL, 2 μM compound, read-out: Human microsome t1/2, min; for Human microsome % 60 min: human liver microsomes. A digest of the protocol:
(§1)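 Liver microsomes (0.5 mg/mL final) incubated with test compound at 2 μM final plus NADPH; samples taken at 0, 15, 30, 45 and 60 min. Parent remaining quantified by LC-MS/MS; k from ln(% remaining) vs time regression, in vitro t1/2 = −0.693/k.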

Data set [4] can be described thus: Metabolic stability in rat liver microsomes (in vitro t1/2). The settings on record: for half-life at 2 µM: rat liver microsomes 0.5 mg/mL, 2 μM compound, read-out: Rat microsome t1/2, min; for Rat microsome % 60 min: rat liver microsomes. Type of data set: in vitro ADME. A digest of the protocol:
as §1

Data set [5] in a line: Metabolic stability in mouse liver microsomes (in vitro t1/2). The settings on record: for half-life at 2 µM: mouse liver microsomes 0.5 mg/mL, 2 μM compound, read-out: Mouse microsome t1/2, min; for Mouse microsome % 60 min: mouse liver microsomes. Format: in vitro ADME. A digest of the protocol: as §1
Data set [6] can be described thus: Pharmacokinetic assay in mouse (IV 3 mg/kg, PO 10 mg/kg). Conditions: Male CD1 mouse; for Mouse F: oral bioavailability; for Mouse F / half-life: PO 10 mg/kg; for half-life / Vd: plasma; for half-life: read-out: Mouse t1/2 (converted); for Vd: volume of distribution, read-out: Mouse Vss. Type of data set: in vivo.
Data set [7] in a line: Pharmacokinetic assay in rat (IV 3 mg/kg, PO 10 mg/kg). Format: in vivo. The settings on record: Male Sprague-Dawley rat; for Rat F: oral bioavailability; for Rat F / half-life: PO 10 mg/kg; for half-life / Vd: plasma; for half-life: read-out: Rat t1/2 (converted); for Vd: volume of distribution, read-out: Rat Vss.
Data set [8] in a line: Adjuvant-induced arthritis model in rat: Difference of Weight Bearing test (DWB). Type of data set: in vivo. Conditions: SD rat, CFA-induced arthritis; PO 3 days post CFA; compared to Dexamethasone.
Data set [9] in a line: Adjuvant-induced arthritis model in rat: Mechanical Allodynia test (MA, Von Frey). Format: in vivo. Conditions: SD rat, CFA-induced arthritis; PO 3 days post CFA; compared to Dexamethasone.

The structures appear in SMILES notation.

`CCn1ncc2ccc(-c3cc(COC(C)(C)C(=O)O)nn3-c3ccccc3N3CCCC3)cc21` [Example 229]: the IC50 in data set [1] turned out to be 1.9 nM. This compound also registered a half-inhibitory concentration (IC50) in data set [2] of 42000 nM. Besides, in data set [3], the half-life at 2 µM was found to be 1.72 h and the “Human microsome % 60 min” value came to 64%. In addition, in data set [4], the half-life at 2 µM was 1.82 h and the “Rat microsome % 60 min” value stood at 69%. Moreover, in [5], the half-life at 2 µM turned out to be 3.27 h and the “Mouse microsome % 60 min” value was 81%. In [6], the “Mouse F” value amounted to 100%, the half-life is 4.2 h and the Vd amounted to 1.9 L/kg. For the same compound, in data set [7], the “Rat F” value is reported as 100%, the half-life is 2.7 h and the Vd was determined as 1 L/kg. Also, the “Difference in Weight Bearing, Minimal Efficacious Dose” value in [8] came to 3 mg/kg. Also, the “Mechanical Allodynia (Von Frey), Minimal Efficacious Dose” value in data set [9] turned out to be 3 mg/kg.
`CC(C)(OCc1cc(-c2cccc(OC3CC3)c2)n(-c2ccccc2N2CCC2)n1)C(=O)O` [Example 232, 2-([1-[2-(Azetidin-1-yl)phenyl]-5-(3-cyclo-propoxyphenyl)-1H-pyrazol-3-yl]methoxy)-2-methylpropanoic acid] returned an IC50 in [1] of 2.1 nM. Moreover, half-maximal inhibition in data set [2] (IC50) was put at 29000 nM. Besides, in data set [3], the half-life at 2 µM worked out at 1.62 h and the “Human microsome % 60 min” value was 65%. Further, in data set [4], the half-life at 2 µM amounted to 1.17 h and the “Rat microsome % 60 min” value turned out to be 50%. Besides, in [5], the half-life at 2 µM turned out to be 1.22 h and the “Mouse microsome % 60 min” value was 59%. Moreover, in [6], the “Mouse F” value is given as 56%, the half-life is 3.1 h and the Vd came to 0.21 L/kg. Further, in data set [7], the “Rat F” value was found to be 52%, the half-life was 2.6 h and the Vd came out at 0.15 L/kg. For the same compound, the “Difference in Weight Bearing, Minimal Efficacious Dose” value in data set [8] is 1 mg/kg. The “Mechanical Allodynia (Von Frey), Minimal Efficacious Dose” value in [9] came to 1 mg/kg.
